According to ChEMBL document CHEMBL1158002, “Aurantoside C, a new tetramic acid glycoside from the sponge Homophymia conferta” (J Nat Prod, 1999):
Converted amounts (≈) assume the structure as drawn.

Assay: Toxicity against brine shrimp
Format: organism-based
Conditions: artemia, in vivo

Structure (SMILES): C/C(Cl)=C/C=C/C(Cl)=C/C=C/C=C/C=C/C=C/C(O)=C1\C(=O)[C@H](CC(N)=O)N([C@@H]2OC[C@@H](O)[C@H](O)[C@H]2O[C@@H]2O[C@H](CO)[C@@H](O[C@@H]3O[C@H](C)[C@@H](O)[C@@H]3O)[C@@H]2O)C1=O [AURANTOSIDE C]
- LC50: 50 µg/mL (≈ 60.3 µM)
